Assays:
[1] = tested on: MeCP2-deficient mice; experiment: Effect of KIT-13 on brain plasmalogen in cerebral cortex tissue lysate (LC-MS/MS), MeCP2-deficient mice; type: in vivo; conditions: male MeCP2-deficient mice, 20 ng/g body weight twice a week by drinking-water administration for three weeks, vs control group given water
Description: Four-week-old male MeCP2-deficient mice lacking the MeCP2 gene on the X chromosome were used in the test. The MeCP2-deficient mice were divided into two groups: a control group (MeCP2-KO) and a KIT-13 administration group (KIT-13).
For the KIT-13 administration group, KIT-13 was suspended in water by ultrasonication, and administered twice a week by drinking-water administration such that 20 ng/g body weight of KIT-13 was taken. In contrast, the control group was given only water in a similar manner. KIT-13 was administered for three weeks until the mice were seven weeks old, and the cerebral cortex was collected from the brains of the mice.
(§1) The collected cerebral cortex was homogenized in a lysate (0.25 M sucrose, 10 mM HEPES-KOH (pH 7.4), 1 mM EDTA, and a protease inhibitor cocktail) to prepare a tissue lysate (25 µg protein). To the tissue lysate in a sample tube, 400 µL of MeOH and 100 µL of internal standard IS (C12 phosphatidylethanolamine (PE) and C12 phosphatidylcholine (PC)) dissolved in chloroform/methanol (C:M=1:2) were added and then mixed. The resulting mixture was transferred to a glass tube. […] Thereafter, the sample was dried under nitrogen gas, dissolved in MeOH, and analyzed using liquid chromatography-mass spectrometry (LC-MS/MS). […]

[2] = tested on: wild-type mice (male, C57BL/6J mice); experiment: Effect of KIT-13 on cerebral cortex PlsEtn (LC-MS/MS), wild-type mice; type: in vivo; conditions: wild-type male C57BL/6J mice; KIT-13 given as in Example 2 for four weeks; control group taken as 1; FIG. 2
Description: For the KIT-13 administration group, KIT-13 was suspended in water by ultrasonication, and administered twice a week by drinking-water administration such that 20 ng/g body weight of KIT-13 was taken. In contrast, the control group was given only water in a similar manner. […]
as §1, with “tube. Then, 200 µL of MeOH was added again to the sample tube, and after the same operation, the resulting mixture was transferred to the glass tube. To the sample, 1.2 mL of C/M (1:1) was added, mixed, sonicated for 5 minutes, and left to stand for 60 minutes.” for “tube.”
Four-week-old wild-type mice (male, C57BL/6J mice, manufactured by the Jackson Laboratory Japan, Inc.) were divided into two groups: a control group and a KIT-13 administration group. […] PlsEtn in the collected cerebral cortex was quantified as with Example 2.

CCCCCC=CCC=CCC=CCC=CCCCC(=O)OC(COCCCCCCCCCCCCCCCCCC)COP(=O)(O)OCCN [KIT-13, 2-(hydroxy((R)-2-(((5Z,8Z,11Z,14Z)-icosa-5,8,11,14-tetraenoyl)oxy)-3-(octadedecyloxy)propoxy)phosphoryl)oxy)ethane-1-ammonium 2,2,2-trifluoroacetate]
significantly increased: concentration of PlsEtn in the tissue lysate ([1]; p < 0.05, FIG. 1A) | concentration of PlsEtn in which the sn-1 position is a saturated aliphatic hydrocarbon group having 18 carbon atoms (PlsEtn-C18:0), in the tissue lysate ([1]; p < 0.05, FIG. 1B) | relative PlsEtn amount in the cerebral cortex [2]

Source: patent EP4623918A1, “AGENT FOR INCREASING BRAIN PLASMALOGEN, AND USE OF ORAL COMPOSITION AND COMPOUND FOR INCREASING BRAIN PLASMALOGEN” (Institute of Rheological Function of Food Co., Ltd., priority 2022, dated 2024)
